Laboratory results: patent US7838552B2, “Compositions comprising nebivolol” (Forest Laboratories Holdings Limited, priority 2004, dated 2010)

System: Black donor endothelial cells (HUVEC)
Experiment: NO release from HUVEC of Black donors, measured with a porphyrinic nanosensor
Format: cell-based, Human
Settings: for magnitude of the increase in NO release, Black versus White donor cells: chronic ACE inhibitor treatment followed by nebivolol 1 μM, FIG. 2 and FIG. 4
Method: All measurements presented were recorded in vitro using a sensitive porphyrinic probe, as previously described. Malinski T, Taha Z., Nature. 1992; 358:676-678; Malinski T, Czuchajowski L., Methods in Nitric Oxide Research. 1996:319-339. NO release was measured directly from HUVEC. HUVEC cells from Black and White donors were grown in Ham's F12K medium with 2 mM L-glutamine adjusted to contain 1.5 g/L sodium bicarbonate and supplemented with 0.1 mg/ml heparin and 0.03-0.05 mg/ml endothelial cell growth supplement (ECGS) +10% fetal bovine serum. The HUVEC cells were kept in an atmosphere of elevated CO2 concentration (5%). Nebivolol was obtained from Mylan Laboratories (Morgantown, W.Va.).
All measurements of endothelial NO release were conducted in Hank's balance solution at 37° C. Cell wells were transferred to a Faraday cage and a porphyrinic sensor (diameter 0.5 mm) was positioned at a distance of 5±2 μm from the surface of the endothelial cells using an inverted microscope (Leica Microsystems, Wetzlar, Germany) and a computer-assisted micromanipulator. The sensor operated with a three-electrode system: nanosensor (working electrode), saturated calomel electrode (reference electrode) and platinum wire (counter electrode, 0.5 mm diameter). The three electrodes were connected to a potentiostat/galvanostat PAR273. The baseline was stabilized after about 20 seconds. The test compounds were injected with a nanoinjector onto the surface of the cells following solubilization in buffer. Cells were incubated with the test compounds for a 24-hour period. The compounds were then washed out of the system before being immediately reintroduced in order to evaluate the consequences of chronic treatment on NO release from the cells. For additive experiments, cells were incubated with ACE inhibitor for 24 hours, the inhibitor was washed out of the system, nebivolol was added and the NO release measured. The current proportional to the NO concentration was measured with the sensor, which operated in amperometric mode at a constant potential of 0.63V. Data were acquired with the use of an IBM computer with custom software and amperograms (current vs. time curves) were recorded with a Guniry FAS1 Femtostat (Warminster, Pa.). Maximum release of NO was produced using a calcium agonist (1 μM). By increasing cytoplasmic levels of calcium, the ion can bind to calmodulin. The Ca2+-calmodulin complex is a cofactor for endothelial NO synthase, along with FAD, FMN, Heme and BH4.
Nanosensors were prepared from carbon fibers. The size of the tip of carbon fiber was reduced from 6 μm to less than 1 μm by temperature controlled burning. The sensors were sensitized to NO by deposition of electrically conductive polymeric porphyrin and covered with a thin layer of Nafion. […]

| SMILES | enhancement of the ability of nebivolol to increase NO release (Black donor cells, chronic (24 h) enalapril 5 and 10 μM, then nebivolol 1 μM, FIG. 3) | magnitude of the increase in NO release, Black versus White donor cells | effect on the ability of nebivolol to increase NO release (Black donor cells, chronic (24 h) ramiprilat 1, 5 and 10 μM, washed out, then nebivolol 1 μM, FIG. 1) |
| --- | --- | --- | --- |
| CCOC(=O)[C@H](CCc1ccccc1)N[C@@H](C)C(=O)N1CCC[C@H]1C(=O)O [enalapril] | significantly enhanced | greater in endothelial cells from Blacks than Whites | – |
| C[C@H](N[C@@H](CCc1ccccc1)C(=O)O)C(=O)N1[C@H](C(=O)O)C[C@@H]2CCC[C@@H]21 [ramiprilat] | – | greater in endothelial cells from Black donors | modest but significant effects |
